Reference: ChEMBL document CHEMBL5608239, “Structure, Function, and Activity of Small Molecule and Peptide Inhibitors of Protein Arginine Methyltransferase 1” (J Med Chem, 2024)
Blank lines part the entries; values can stand above or below the molecule they belong to. Numbered stars: 1 amine (or outer) side, 2 acyl side, 3 side chain; on linkers, the order of the positions; unused ones are H or OH. Square brackets hold non-standard residues; d marks the D form. Peptide text beside a SMILES is read from it. X1 = N=C(NCCC[C@H](N[*:1])C(=O)[*:2])NCCC[C@H]1O[C@@H](n2cnc3c(N)ncnc32)[C@H](O)[C@@H]1O

Columns and labels:
[1] = target: T1, Protein arginine N-methyltransferase 1 (Homo sapiens, UniProt Q99873)
[2] = target: T1, Protein arginine N-methyltransferase 1; test: Inhibition of PRMT1 (unknown origin) using Histone H4 as substrate incubated for 1 hr by fluorescence based analysis
[3] = target: T1, Protein arginine N-methyltransferase 1; test: Inhibition of 6His-tagged human recombinant PRMT1 using Histone H4 as substrate
[4] = target: T1, Protein arginine N-methyltransferase 1; test: Inhibition of human PRMT1 using [3H]methylated biotin-labeled peptide as substrate by scintillation proximity assay

T1 sequence (Q99873 whole entry): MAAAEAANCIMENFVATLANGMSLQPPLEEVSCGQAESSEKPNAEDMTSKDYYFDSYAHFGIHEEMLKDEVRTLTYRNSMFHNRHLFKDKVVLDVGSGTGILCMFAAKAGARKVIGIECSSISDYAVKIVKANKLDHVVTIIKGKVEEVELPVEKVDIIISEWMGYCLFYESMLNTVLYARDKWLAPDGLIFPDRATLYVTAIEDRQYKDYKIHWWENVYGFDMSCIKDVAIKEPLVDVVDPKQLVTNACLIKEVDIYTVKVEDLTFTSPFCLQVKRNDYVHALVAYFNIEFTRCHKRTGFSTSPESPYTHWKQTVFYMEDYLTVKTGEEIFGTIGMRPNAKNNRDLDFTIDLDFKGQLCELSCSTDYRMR

SMILES: N=C(NCCCCC(N)C(N)=O)NCCCSC[C@H]1O[C@@H](n2cnc3c(N)ncnc32)[C@H](O)[C@@H]1O (some centres undefined)
- IC50 [1]: 3 µM
- IC50 [2]: 3 µM

- IC50 [3]: > 500 µM
SMILES: C[C@@H](O)[C@H](NC(=O)CNC(=O)CNC(=O)[C@H](CCCNC(=N)NCCC[C@H](N)C(=O)O)NC(=O)[C@H](CO)NC(=O)[C@@H](NC(=O)CNC(=O)CNC(=O)[C@@H](N)Cc1c[nH]c2ccccc12)[C@@H](C)O)C(=O)NCC(=O)NCC(=O)N[C@@H](Cc1c[nH]c2ccccc12)C(=O)O

- IC50 [4]: 1.33 µM
SMILES: CC(=O)N[C@@H](CO)C(=O)NCC(=O)N[C@@H](CCCNC(=N)NCCC[C@H]1O[C@@H](n2cnc3c(N)ncnc32)[C@H](O)[C@@H]1O)C(=O)NCC(=O)N[C@@H](CCCCN)C(=O)NCC(=O)NCC(=O)N[C@@H](CCCCN)C(N)=O (Ac-SG[X1]GKGGK-NH2)
